Values quoted from earlier work, collected in patent US7696242B2, “Hepatitis C inhibitor peptide analogs” (Boehringer Ingelheim International GmbH, priority 2004, dated 2010).

System: hepatitis C virus
Settings: two day clinical trial, patients infected with the hepatitis C virus

## COc1ccc2c(O[C@@H]3C[C@H]4C(=O)N[C@]5(C(=O)O)C[C@H]5/C=C\CCCCC[C@H](NC(=O)OC5CCCC5)C(=O)N4C3)cc(-c3csc(NC(C)C)n3)nc2c1 [BILN 2061]
  reduction of viral loads in patients: effective in rapidly reducing viral loads
